From patent publication US10463764B2, “3D tissue-engineered bone marrow for personalized therapy and drug development” (Washington University, priority 2014, dated 2019) come the findings set out here.

Assay [1] deals with MM1s cells. The assay is described as follows: Drug survival of MM1s cells in mono- or multi-culture in classic 2D cultures and 3DTEBM, by flow cytometry. The format is cell-based. To be noted: Homo sapiens, MM1.S, 24 h. As for the experimental part: MM1s-GFP cells (30×10^3 cells/well) were cultured in mono-culture or multi-culture conditions [CD138^− stromal cells-DiD (10×10^3 cells/well), HUVECs-DiD (10×10^3 cells/well), and fibronectin 100 ng/ml)] in 3DTEBM and classic 2D cultures. After 2 h gelification of 3DTEBM or adhesion in 2D cultures (cells were culture in 50 μl), 50 ul of RPMI completed media was added on top of 3DTEBM. Then, 50 μl of bortezomib (0-30 nM), carfilzomib (0, 10 nM), or melphalan (0, 1 μM) solutions were added on top of 2D cultures and 3DTEBM for 24 h. Cell proliferation assay was assessed by flow cytometry as previously described. Briefly, drug-media was removed, 3DTEBM were digested and cells of 2D cultures detached by pipetting. Effect of drug treatment in MM1s-GFP cells was measured and normalized to non-treated conditions.
Finally, the effect of increasing concentrations of bortezomib on the survival of MM1s cells grown in mono-culture or multi-culture in 3DTEBM and 2D cultures was measured.
For orientation: In flow cytometry, cells or beads pass a laser one at a time.

In assay [2] the test system is MM1s cells. The assay is described as follows: Effect of ECM component fibronectin on growth of MM cells inside 3DTEBM, by flow cytometry. Format: cell-based. To be noted: 100 ng/ml, day 3. As for the experimental part:
For flow cytometry analysis, an internal control (MM1s-calcein violet) was added and a minimum of 5,000 events were acquired using BD FACS Aria (BD Biosciences) and DiVa v6.1.2 software. The data was analyzed using FlowJo program v10 (Ashland, Oreg.). MM cells or CD138^+ cells were identified by gating cells with a high GFP/DiO signal (excitement, 488 nm; filter, 530/30 nm); Hs5 stroma or CD138-stromal cells were identified by gating cells with a high DiD signal (excitement, 638 nm; filter, 660/20 nm); HUVECs were identified by gating cells with a high DiI signal (excitement, 488 nm; filter, 585/15 nm); and MM1s cells control were identified by gating cells with a high UV signal (excitement, 355 nm; filter, 450/50 nm). A 3DTEBM was digested with type I collagenase at 25 mg/ml for 2 h at 37° C. Classic bi-dimensional (2D) cultures were washed with PBS and removed by pipetting. The effect of cell density (5×10^3-50×10^3 cells/well) of MM1s-GFP, Hs5 stroma-DiD, CD138− stromal cells-DiD, and HUVECs-DiI on growth rate in mono-cultures at day 3 inside 3DTEBM was measured by flow cytometry. […]

As usually defined, the IC50 is the concentration that gives 50% inhibition. Lower therefore signals greater potency in that assay.

Turning to `CC(C)C[C@H](NC(=O)[C@H](Cc1ccccc1)NC(=O)c1cnccn1)B(O)O` [bortezomib], the IC50 in the assay with MM1s cells [1] (3DTEBM mono-culture) is 15 to 20 nM; with MM1s cells [1] (3DTEBM multi-culture (CD138- stromal cells, HUVECs, fibronectin)) it was ~25 nM; in the assay with MM1s cells [1] (classic 2D mono-culture), ~5 nM; in the assay on MM1s cells [1] (classic 2D multi-culture (CD138- stromal cells, HUVECs, fibronectin)), ~7 nM.

Consider fibronectin, for which, in the assay with MM1s cells [2], the “increase of growth of MM cells in 3DTEBM” value is reported as “about 25%”.
